The molecules below were run against CRBN truncate (318-426) (Homo sapiens (Human), UniProt Q96SW2) (assay: Measurement of molecular interactions using surface plasmon resonance (SPR), Biacore T200). Conditions: 25° C., immobilized CRBN truncate, upper limit of measurement 200 μM.
Assay type: binding
Experimental: The instrument used was the Biacore T200 (manufactured by Cytiva). The CRBN truncate (318-426) was obtained by expressing a construct with an Avi-tag added at the C-terminus. The sensor chip used was Sensor Chip SA (manufactured by Cytiva). The CRBN truncate was immobilized using the affinity between SA (streptavidin) on the sensor chip and the Avi-tag. The running buffer was a mixture of 10 mM HEPES pH 7.5, 150 mM NaCl, 1 mM TCEP, 0.005% Tween 20, and 2% DMSO. […] Contact time and dissociation time were set at 60 seconds and 120 seconds, respectively.

Sequence of CRBN truncate (318-426) (Q96SW2 318-426): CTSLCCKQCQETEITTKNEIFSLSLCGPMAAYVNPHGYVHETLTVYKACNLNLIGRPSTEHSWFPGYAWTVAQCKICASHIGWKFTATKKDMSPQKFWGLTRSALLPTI

For CCOC(=O)c1ccc2nc(N3CCC4(CCCC(=O)NC4=O)C3)sc2c1 (centres unmarked) [Example 73, Ethyl 2-(6,8-dioxo-2,7-diazaspiro[4.6]undecane-2-yl)-1,3-benzothiazole-6-carboxylate], which Kd is on record?
Its Kd is < 50 µM.

With O=C1CCCC2(CCN(c3nc4ncccc4s3)C2)C(=O)N1 (centres unmarked) [Example 74, 2-([1,3]thiazolo[4,5-b]pyridin-2-yl)-2,7-diazaspiro[4.6]undecane-6,8-dione] as the molecule, how does the Kd read?
The Kd was ≥ 100 µM.

O=C1CCCC2(CCN(c3ccc([N+](=O)[O-])cn3)C2)C(=O)N1 (centres unmarked) [Example 75, 2-(5-nitro-2-pyridyl)-2,7-diazaspiro[4.6]undecane-6,8-dione] was tested. Which Kd did it give?
Its Kd is < 50 µM.

For O=Cc1ccc(N2CCC3(CCCC(=O)NC3=O)C2)nc1 (centres unmarked) [Example 76, 6-(6,8-Dioxo-2,7-diazaspiro[4.6]undecane-2-yl)pyridine-3-carbaldehyde], which Kd is on record?
Its Kd is ≥ 100 µM.

O=C1CCCC2(CCN(c3ncc([N+](=O)[O-])cc3Cl)C2)C(=O)N1 (centres unmarked) [Example 77, 2-(3-chloro-5-nitro-2-pyridyl)-2,7-diazaspiro[4.6]undecane-6,8-dione] was tested. Which Kd did it give?
Its Kd is < 50 µM.

For O=C1CCCC2(CCN(c3ncc([N+](=O)[O-])cc3C(F)(F)F)C2)C(=O)N1 (centres unmarked) [Example 79, 2-(5-nitro-3-(trifluoromethyl)-2-pyridyl)-2,7-diazaspiro[4.6]undecane-6,8-dione], which Kd is on record?
Its Kd is ≥ 100 µM.

Which Kd does the source give for O=C1CCCC2(CCN(c3ccc([N+](=O)[O-])cc3)C2)C(=O)N1 (centres unmarked) [Example 80, 2-(4-Nitrophenyl)-2,7-diazaspiro[4.6]undecane-6,8-dione] here?
The Kd was < 50 µM.

Which Kd does the source give for Cc1cc(N2CCC3(CCCC(=O)NC3=O)C2)ccc1[N+](=O)[O-] (centres unmarked) [Example 81, 2-(3-Methyl-4-nitrophenyl)-2,7-diazaspiro[4.6]undecane-6,8-dione] here?
The Kd was ≥ 100 µM.

How did the Kd turn out when Cc1cc([N+](=O)[O-])ccc1N1CCC2(CCCC(=O)NC2=O)C1 (centres unmarked) [Example 82, 2-(2-Methyl-4-nitrophenyl)-2,7-diazaspiro[4.6]undecane-6,8-dione] was run?
Its Kd is 50 to 100 µM.

O=C1CCCC2(CCN(c3ccc([N+](=O)[O-])cc3F)C2)C(=O)N1 (centres unmarked) [Example 83, 2-(2-Fluoro-4-nitrophenyl)-2,7-diazaspiro[4.6]undecane-6,8-dione] was tested. Which Kd did it give?
Its Kd is < 50 µM.

For O=C1CCCC2(CCN(c3ccc([N+](=O)[O-])cc3Cl)C2)C(=O)N1 (centres unmarked) [Example 84, 2-(2-Chloro-4-nitrophenyl)-2,7-diazaspiro[4.6]undecane-6,8-dione], which Kd is on record?
The Kd was < 50 µM.

How did the Kd turn out when Nc1ccc2nc(N3CCC4(CCCC(=O)NC4=O)C3)sc2c1 (centres unmarked) [Example 85, 2-(6-Amino-1,3-benzothiazol-2-yl)-2,7-diazaspiro[4.6]undecane-6,8-dione] was run?
The Kd was 50 to 100 µM.

With Nc1ccc(N2CCC3(CCCC(=O)NC3=O)C2)c(F)c1 (centres unmarked) [Example 86, 2-(4-Amino-2-fluorophenyl)-2,7-diazaspiro[4.6]undecane-6,8-dione] as the molecule, how does the Kd read?
Its Kd is ≥ 100 µM.

For CC(=O)Nc1ccc2nc(N3CCC4(CCCC(=O)NC4=O)C3)sc2c1 (centres unmarked) [Example 87, N-[2-(6,8-dioxo-2,7-diazaspiro[4.6]undecan-2-yl)-1,3-benzothiazol-6-yl]acetamide], which Kd is on record?
The Kd was ≥ 100 µM.

Which Kd does the source give for CC(=O)Nc1ccc(N2CCC3(CCCC(=O)NC3=O)C2)c(F)c1 (centres unmarked) [Example 88, N-[4-(6,8-dioxo-2,7-diazaspiro[4.6]undecan-2-yl)-3-fluorophenyl]acetamide] here?
Its Kd is ≥ 100 µM.

How did the Kd turn out when CC(=O)N1CCN(Cc2ccc(N3CCC4(CCCC(=O)NC4=O)C3)nc2)CC1 (centres unmarked) [Example 89, 2-[5-[(4-Acetylpiperazin-1-yl)methyl]pyridin-2-yl]-2,7-diazaspiro[4.6]undecane-6,8-dione] was run?
The Kd was ≥ 100 µM.

For CC(C)(C)OC(=O)c1ccc(N2CCC3(CCCC(=O)NC3=O)C2)nc1 (centres unmarked) [Example 90-1, tert-Butyl 6-(6,8-dioxo-2,7-diazaspiro [4.6]undecan-2-yl) pyridine-3-carboxylate], which Kd is on record?
The Kd was < 50 µM.

How did the Kd turn out when CC(C)(C)OC(=O)c1ccc(N2CCC3(CCCC(=O)NC3=O)C2=O)nc1 (centres unmarked) [Example 90-2, tert-Butyl 6-(1,9,11-trioxo-2,10-diazaspiro [4.6]undecan-2-yl) pyridine-3-carboxylate] was run?
Its Kd is ≥ 100 µM.

Which Kd does the source give for CC(C)(C)OC(=O)c1ccnc(N2CCC3(CCCC(=O)NC3=O)C2)c1 (centres unmarked) [Example 91, tert-Butyl 2-(6,8-dioxo-2,7-diazaspiro [4.6]undecan-2-yl) pyridine-4-carboxylate] here?
The Kd was 50 to 100 µM.

How did the Kd turn out when CC(C)(C)OC(=O)c1cccc(N2CCC3(CCCC(=O)NC3=O)C2)n1 (centres unmarked) [Example 92, tert-Butyl 6-(6,8-dioxo-2,7-diazaspiro [4.6]undecan-2-yl) pyridine-2-carboxylate] was run?
The Kd was ≥ 100 µM.

Which Kd does the source give for CC(C)(C)OC(=O)c1ccc(N2CCCC3(CCCC(=O)NC3=O)C2)nc1 (centres unmarked) [Example 93, tert-Butyl 6-(7,9-dioxo-2,8-diazaspiro [5.6]dodecan-2-yl) pyridine-3-carboxylate] here?
The Kd was ≥ 100 µM.

Which Kd does the source give for CC(C)(C)OC(=O)c1ccc(N2CCC3(CCCC(=O)NC3=O)CC2)nc1 [Example 94, tert-Butyl 6-(7,9-dioxo-3,8-diazaspiro [5.6]dodecan-3-yl) pyridine-3-carboxylate] here?
Its Kd is 50 to 100 µM.

Which Kd does the source give for CC(C)(C)OC(=O)c1cnc(N2CCC3(CCCC(=O)NC3=O)C2)s1 (centres unmarked) [Example 95, tert-Butyl 2-(6,8-dioxo-2,7-diazaspiro [4.6]undecan-2-yl)-1,3-thiazole-5-carboxylate] here?
Its Kd is ≥ 100 µM.

With CNC(=O)c1ccc(N2CCC3(CCCC(=O)NC3=O)C2)nc1 (centres unmarked) [Example 96, 6-(6,8-Dioxo-2,7-diazaspiro [4.6]undecan-2-yl)-N-methylpyridine-3-carboxamide] as the molecule, how does the Kd read?
Its Kd is ≥ 100 µM.

How did the Kd turn out when CC(C)(C)OC(=O)N1CCN(C(=O)c2ccc(N3CCC4(CCCC(=O)NC4=O)C3)nc2)CC1 (centres unmarked) [Example 97, tert-Butyl 4-[6-(6,8-dioxo-2,7-diazaspiro [4.6]undecan-2-yl)pyridine-3-carbonyl]piperazine-1-carboxylate] was run?
The Kd was ≥ 100 µM.

Which Kd does the source give for CC(C)(C)OC(=O)N1CCN(Cc2ccc(N3CCC4(CCCC(=O)NC4=O)C3)nc2)CC1 (centres unmarked) [Example 99, tert-Butyl 4-[[6-(6,8-dioxo-2,7-diazaspiro [4.6]undecan-2-yl)pyridin-3-yl]methyl]piperazine-1-carboxylate] here?
The Kd was ≥ 100 µM.

Which Kd does the source give for O=C1CCCC2(CCCN(C(=O)c3ccccc3)C2)C(=O)N1 (centres unmarked) [Example 104, 2-Benzoyl-2,8-diazaspiro [5.6]dodecane-7,9-dione] here?
Its Kd is ≥ 100 µM.

How did the Kd turn out when O=C1CCCC2(CCN(C(=O)c3ccccc3)CC2)C(=O)N1 [Example 106, 3-Benzoyl-3,8-diazaspiro [5.6]dodecane-7,9-dione] was run?
Its Kd is ≥ 100 µM.

Which Kd does the source give for CC(C)(C)OC(=O)c1ccc(N2CCC3(CCCC(=O)NC3=O)CC2=O)nc1 (centres unmarked) [Example 108, tert-Butyl 6-(4,7,9-trioxo-3,8-diazaspiro [5.6]dodecan-3-yl) pyridine-3-carboxylate] here?
The Kd was 50 to 100 µM.

For CC(C)(C)OC(=O)c1ccc(N2CCC3(CCCC(=O)NC3=O)CC2=O)cc1 (centres unmarked) [Example 109, tert-Butyl 4-(4,7,9-trioxo-3,8-diazaspiro [5.6]dodecan-3-yl) benzoate], which Kd is on record?
Its Kd is < 50 µM.

CC(C)(C)OC(=O)c1cccc(N2CCC3(CCCC(=O)NC3=O)CC2=O)c1 (centres unmarked) [Example 110, tert-Butyl 3-(4,7,9-trioxo-3,8-diazaspiro [5.6]dodecan-3-yl) benzoate] was tested. Which Kd did it give?
Its Kd is ≥ 100 µM.

Which Kd does the source give for CC(C)(C)OC(=O)c1ccc(CN2CCC3(CCCC(=O)NC3=O)CC2=O)cc1 (centres unmarked) [Example 111, tert-Butyl 4-[(4,7,9-trioxo-3,8-diazaspiro [5.6]dodecan-3-yl)methyl]benzoate] here?
The Kd was 50 to 100 µM.

For CC(C)(C)OC(=O)c1ccc(N2CC3(CCCC(=O)NC3=O)CC2=O)nc1 (centres unmarked) [Example 113, tert-Butyl 6-(3,6,8-trioxo-2,7-diazaspiro [4.6]undecan-2-yl) pyridine-3-carboxylate], which Kd is on record?
Its Kd is ≥ 100 µM.

CC(C)(C)OC(=O)c1cnc(N2CCCC(=O)NC2=O)s1 [Example 115, tert-Butyl 2-(2,4-dioxo-1,3-diazepan-1-yl) thiazole-5-carboxylate] was tested. Which Kd did it give?
Its Kd is 50 to 100 µM.

For O=C1CCCN(c2nc3ccc([N+](=O)[O-])cc3s2)C(=O)N1 [Example 116, 1-(6-Nitro-1,3-benzothiazol-2-yl)-1,3-diazepane-2,4-dione], which Kd is on record?
Its Kd is < 50 µM.

Which Kd does the source give for O=C1CCCN(c2ccc3ncccc3c2)C(=O)N1 [Example 117, 1-Quinolin-6-yl-1,3-diazepane-2,4-dione] here?
Its Kd is ≥ 100 µM.

Which Kd does the source give for Nc1ccc2nc(N3CCCC(=O)NC3=O)sc2c1 [Example 118, 1-(6-Amino-1,3-benzothiazol-2-yl)-1,3-diazepane-2,4-dione] here?
Its Kd is ≥ 100 µM.

With CN(c1ccc([N+](=O)[O-])cc1)C1CCCC(=O)NC1=O (centres unmarked) [Example 120, 3-(N-Methyl-4-nitro-anilino) azepane-2,7-dione] as the molecule, how does the Kd read?
The Kd was ≥ 100 µM.

CC(=O)Nc1ccc(N(C)C2CCCC(=O)NC2=O)cc1 (centres unmarked) [Example 121, N-[4-[(2,7-Dioxoazepan-3-yl)-methyl-amino]phenyl]acetamide] was tested. Which Kd did it give?
The Kd was ≥ 100 µM.

Which Kd does the source give for O=C1CCCC2(CCN(C(=O)c3ccccc3)C2)C(=O)N1 (centres unmarked) [Example 122, 2-Benzoyl-2,7-diazaspiro [4.6]undecane-6,8-dione] here?
The Kd was ≥ 100 µM.

With CC(C)(C)OC(=O)c1cccc(N2CCC3(CCCC(=O)NC3=O)C2)c1 (centres unmarked) [Example 123, tert-Butyl 3-(6,8-dioxo-2,7-diazaspiro [4.6]undecan-2-yl) benzoate] as the molecule, how does the Kd read?
The Kd was < 50 µM.

With COc1ccnc(N2CCC3(CCCC(=O)NC3=O)C2)c1 (centres unmarked) [Example 125, 2-(4-Methoxy-2-pyridyl)-2,7-diazaspiro [4.6]undecane-6,8-dione] as the molecule, how does the Kd read?
The Kd was ≥ 100 µM.

For CC(C)(C)OC(=O)N1CCN(c2ccnc(N3CCC4(CCCC(=O)NC4=O)C3)c2)CC1 (centres unmarked) [Example 126, tert-Butyl 4-[2-(6,8-dioxo-2,7-diazaspiro [4.6]undecan-2-yl)-4-pyridyl]piperazine-1-carboxylate], which Kd is on record?
The Kd was ≥ 100 µM.

For O=C1CCCC2(CCN(c3ncc(Br)cn3)C2)C(=O)N1 (centres unmarked) [Example 127, 2-(5-Bromopyrimidin-2-yl)-2,7-diazaspiro [4.6]undecane-6,8-dione], which Kd is on record?
Its Kd is ≥ 100 µM.
